Assay results as given in patent publication US20240376091A1, “THIADIAZOLEAMIDE DERIVATIVES AND THEIR APPLICATIONS” (ZHEJIANG UNIVERSITY, priority 2021, published 2024).
pIC50: −log10 of the molar value.

Biological target: T1, AR (Homo sapiens, UniProt P10275, T878A)
T1 construct: into the androgen-dependent PCa cells (LNCaP); endogenous in cells; host or cells: LNCaP-ARR2PB-eGFP
T1 sequence (P10275 1-920 T878A): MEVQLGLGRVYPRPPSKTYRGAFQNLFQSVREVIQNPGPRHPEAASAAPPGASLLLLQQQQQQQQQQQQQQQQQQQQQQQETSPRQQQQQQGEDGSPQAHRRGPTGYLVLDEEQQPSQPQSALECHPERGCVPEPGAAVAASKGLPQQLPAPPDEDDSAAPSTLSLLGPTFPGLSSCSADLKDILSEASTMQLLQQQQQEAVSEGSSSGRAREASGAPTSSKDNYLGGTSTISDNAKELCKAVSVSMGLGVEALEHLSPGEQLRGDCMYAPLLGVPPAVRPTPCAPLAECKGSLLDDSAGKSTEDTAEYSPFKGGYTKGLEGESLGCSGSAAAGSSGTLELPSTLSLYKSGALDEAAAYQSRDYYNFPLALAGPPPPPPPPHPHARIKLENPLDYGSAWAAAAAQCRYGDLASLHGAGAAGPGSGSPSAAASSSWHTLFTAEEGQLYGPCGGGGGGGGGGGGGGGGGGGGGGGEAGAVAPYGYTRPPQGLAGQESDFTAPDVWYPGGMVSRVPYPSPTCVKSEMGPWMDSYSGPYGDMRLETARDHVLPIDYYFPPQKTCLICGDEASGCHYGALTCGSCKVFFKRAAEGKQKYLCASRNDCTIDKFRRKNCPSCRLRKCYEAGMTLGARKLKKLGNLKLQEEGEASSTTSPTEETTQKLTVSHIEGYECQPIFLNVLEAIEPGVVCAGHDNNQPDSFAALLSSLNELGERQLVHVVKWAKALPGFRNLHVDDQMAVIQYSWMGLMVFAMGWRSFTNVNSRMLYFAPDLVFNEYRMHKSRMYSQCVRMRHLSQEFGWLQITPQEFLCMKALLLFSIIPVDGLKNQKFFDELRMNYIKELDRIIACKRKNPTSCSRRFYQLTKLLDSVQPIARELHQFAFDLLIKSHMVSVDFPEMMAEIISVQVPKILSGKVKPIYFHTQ
Experiment: AR transcriptional activity, LNCaP-ARR2PB-eGFP reporter cells
Assay type: cell-based
Conditions: read-out: IC50 AR transcriptional activities
Source text: Detection principles: We conducted a stable transfection of promoter ARR2PB known for its strong AR responsiveness, into the androgen-dependent PCa cells (LNCaP). The expression of enhanced green fluorescent protein (eGFP) is depending on the degree of activation of AR. Therefore, LNCaP-ARR2PB-eGFP cell line could quantitatively determine the AR antagonistic activities of the compounds by evaluating the expression of eGFP.

Row | Structure (SMILES) | pIC50
1 | Cc1oc(C(=O)Nc2nc(CN3CCCC3)ns2)cc1-c1cccc(C(F)(F)F)c1 [Compound F-24, 5-Methyl-N-(3-(pyrrolidin-1-ylmethyl)-1,2,4-thiadiazol-5-yl)-4-(3-(trifluoromethyl)phenyl)furan-2-carboxamide] | 4.45
2 | CC(=O)Cc1nsc(NC(=O)c2cc(-c3ccc(Cl)c(Cl)c3)oc2C)n1 [Compound A-10, 5-(3,4-Dichlorophenyl)-2-methyl-N-(3-(2-oxopropyl)-1,2,4-thiadiazol-5-yl)furan-3-carboxamide] | 5.91
3 | CCN(CC)Cc1nsc(NC(=O)c2coc(-c3cccc(OC)c3)c2)n1 [Compound B-50, N-(3-((diethylamino)methyl)-1,2,4-thiadiazol-5-yl)-5-(3-methoxyphenyl)furan-3-carboxamide] | 4.64
4 | CC(O)(Cc1nsc(NC(=O)c2csc(-c3cccc(C(F)(F)F)c3)c2)n1)C(F)(F)F [Compound D-25, N-(3-(3,3,3-trifluoro-2-hydroxy-2-methylpropyl)-1,2,4-thiadiazol-5-yl)-5-(3-(trifluoro-methyl)phenyl)thiophene-3-carboxamide] | 4.48
5 | Cc1oc(-c2cccc(OC(F)(F)F)c2)cc1C(=O)Nc1nc(CC(C)N(C)C)ns1 (stereo not drawn) [Compound A-44, N-(3-(2-(dimethylamino)propyl)-1,2,4-thiadiazol-5-yl)-2-methyl-5-(3-(trifluoromethoxy)phenyl)furan-3-carboxamide] | 7.22
6 | Cc1sc(-c2cccc(C(F)(F)F)c2)cc1C(=O)Nc1nc(CC(C)(F)F)ns1 [Compound C-35, N-(3-(2,2-difluoropropyl)-1,2,4-thiadiazol-5-yl)-2-methyl-5-(3-(trifluoromethyl)phenyl)thiophene-3-carboxamide] | 4.54
7 | CC(O)Cc1nsc(NC(=O)c2cc(-c3cccc(C(F)(F)F)c3)oc2C(F)(F)F)n1 (stereo not drawn) [Compound E-12, N-(3-(2-hydroxypropyl)-1,2,4-thiadiazol-5-yl)-2-(trifluoromethyl)-5-(3-(trifluoromethyl)phenyl)furan-3-carboxamide] | 5.80
8 | O=C(Nc1nc(CCl)ns1)c1cc(-c2cccc(C(F)(F)F)c2)co1 [Compound G-19, N-(3-(chloromethyl)-1,2,4-thiadiazol-5-yl)-4-(3-(trifluoromethyl)phenyl)furan-2-carboxamide] | 4.50
9 | Cc1oc(-c2cccc(C(F)(F)F)c2)cc1C(=O)Nc1nc(CC(C)(C)O)ns1 [Compound A-90, N-(3-(2-hydroxy-2-methylpropyl)-1,2,4-thiadiazol-5-yl)-2-methyl-5-(3-(trifluoromethyl)phenyl)furan-3-carboxamide] | 7.30
10 | COc1cccc(-c2coc(C(=O)Nc3nc(CC(C)=C(F)F)ns3)c2)c1 [Compound G-15, N-(3-(3,3-difluoro-2-methylallyl)-1,2,4-thiadiazol-5-yl)-4-(3-methoxyphenyl)furan-2-carboxamide] | 4.62
11 | CC(=O)Cc1nsc(NC(=O)c2cc(-c3cccc(Br)c3)oc2C)n1 [Compound A-9, 5-(3-Bromophenyl)-2-methyl-N-(3-(2-oxopropyl)-1,2,4-thiadiazol-5-yl)furan-3-carboxamide] | 5.63
12 | O=C(Nc1nc(CN2CCCCC2)ns1)c1csc(-c2cccc(OC(F)F)c2)c1 [Compound D-56, 5-(3-(Difluoromethoxy)phenyl)-N-(3-(piperidin-1-ylmethyl)-1,2,4-thiadiazol-5-yl)thiophene-3-carboxamide] | 4.38
13 | CCN(CC)C(C)Cc1nsc(NC(=O)c2cc(-c3cccc(OC(F)F)c3)oc2C)n1 (stereo not drawn) [Compound A-45, N-(3-(2-(diethylamino)propyl)-1,2,4-thiadiazol-5-yl)-5-(3-(difluoromethoxy)phenyl)-2-methylfuran-3-carboxamide] | 7.40
14 | CC(=O)Cc1nsc(NC(=O)c2cc(-c3cccc(C#N)c3)sc2C)n1 [Compound C-2, 5-(3-Cyanophenyl)-2-methyl-N-(3-(2-oxopropyl)-1,2,4-thiadiazol-5-yl)thiophene-3-carboxamide] | 4.48
15 | CC(Cc1nsc(NC(=O)c2cc(-c3cccc(C#N)c3)co2)n1)N1CCCCC1 (stereo not drawn) [Compound G-7, 4-(3-Cyanophenyl)-N-(3-(2-(piperidin-1-yl)propyl)-1,2,4-thiadiazol-5-yl)furan-2-carboxamide] | 4.64
16 | CC(=O)Cc1nsc(NC(=O)c2cc(-c3cccc4ccccc34)oc2C)n1 [Compound A-11, 2-Methyl-5-(naphthalen-1-yl)-N-(3-(2-oxopropyl)-1,2,4-thiadiazol-5-yl)furan-3-carboxamide] | 5.37
17 | Cc1oc(-c2cccc(C(F)(F)F)c2)cc1C(=O)Nc1nc(CC(C)O)ns1 (stereo not drawn) [Compound A-60, N-(3-(2-hydroxypropyl)-1,2,4-thiadiazol-5-yl)-2-methyl-5-(3-(trifluoromethyl)phenyl)furan-3-carboxamide] | 6.41
18 | CC(=O)Cc1nsc(NC(=O)c2cc(-c3cccc(OC(F)(F)F)c3)oc2C(F)(F)F)n1 [Compound E-4, N-(3-(2-oxopropyl)-1,2,4-thiadiazol-5-yl)-5-(3-(trifluoromethoxy)phenyl)-2-(trifluoro-methyl)furan-3-carboxamide] | 6.26
19 | CN1CCN(Cc2nsc(NC(=O)c3csc(-c4cccc(OC(F)F)c4)c3)n2)CC1 [Compound D-58, 5-(3-(Difluoromethoxy)phenyl)-N-(3-((4-methylpiperazin-1-yl)methyl)-1,2,4-thiadiazol-5-yl)thiophene-3-carboxamide] | 4.62
20 | CCN(CC)Cc1nsc(NC(=O)c2csc(-c3cccc(OC)c3)c2)n1 [Compound D-50, N-(3-((diethylamino)methyl)-1,2,4-thiadiazol-5-yl)-5-(3-methoxyphenyl)thiophene-3-carboxamide] | 4.82
21 | CNC(C)Cc1nsc(NC(=O)c2cc(-c3cccc(C(F)(F)F)c3)oc2C)n1 (stereo not drawn) [Compound A-96, 2-Methyl-N-(3-(2-(methylamino)propyl)-1,2,4-thiadiazol-5-yl)-5-(3-(trifluoromethyl)phenyl)furan-3-carboxamide] | 6.80
22 | Cc1oc(-c2cccc(C(F)(F)F)c2)cc1C(=O)Nc1nc(CC(C)N2CCCC2)ns1 (stereo not drawn) [Compound A-40, 2-Methyl-N-(3-(2-(pyrrolidin-1-yl)propyl)-1,2,4-thiadiazol-5-yl)-5-(3-(trifluoromethyl)phenyl)furan-3-carboxamide] | 6.64
23 | CC(=O)Cc1nsc(NC(=O)c2cc(-c3cccc(N)c3)oc2C)n1 [Compound A-24, 5-(3-Aminophenyl)-2-methyl-N-(3-(2-oxopropyl)-1,2,4-thiadiazol-5-yl)furan-3-carboxamide] | 5.79
24 | CC(Cc1nsc(NC(=O)c2cc(-c3cccc(C(F)(F)F)c3)oc2C(F)(F)F)n1)N1CCCC1 (stereo not drawn) [Compound E-6, N-(3-(2-(pyrrolidin-1-yl)propyl)-1,2,4-thiadiazol-5-yl)-2-(trifluoromethyl)-5-(3-(trifluoromethyl)phenyl) furan-3-carboxamide] | 5.47
25 | Cc1oc(C(=O)Nc2nc(CN3CCCCC3)ns2)cc1-c1cccc(C#N)c1 [Compound F-25, 4-(3-Cyanophenyl)-5-methyl-N-(3-(piperidin-1-ylmethyl)-1,2,4-thiadiazol-5-yl)furan-2-carboxamide] | 4.81
26 | Cc1sc(-c2cccc(C(F)(F)F)c2)cc1C(=O)Nc1nc(CC(C)(O)C(F)(F)F)ns1 (stereo not drawn) [Compound C-25, 2-Methyl-N-(3-(3,3,3-trifluoro-2-hydroxy-2-methylpropyl)-1,2,4-thiadiazol-5-yl)-5-(3-(trifluoromethyl)phenyl)thiophene-3-carboxamide] | 5.60
27 | Cc1oc(-c2cccc(C(F)(F)F)c2)cc1C(=O)Nc1nc(CC(C)N(C)C)ns1 (stereo not drawn) [Compound A-38, N-(3-(2-(dimethylamino)propyl)-1,2,4-thiadiazol-5-yl)-2-methyl-5-(3-(trifluoromethyl)phenyl)furan-3-carboxamide] | 7.05
28 | Cc1oc(C(=O)Nc2nc(CC(C)N3CCCC3)ns2)cc1-c1cccc(C(F)(F)F)c1 (stereo not drawn) [Compound F-6] | 4.75
29 | O=C(Nc1nc(CCl)ns1)c1coc(-c2cccc(C(F)(F)F)c2)c1 [Compound B-40, N-(3-(chloromethyl)-1,2,4-thiadiazol-5-yl)-5-(3-(trifluoromethyl)phenyl)furan-3-carboxamide] | 4.91
30 | CC(=O)Cc1nsc(NC(=O)c2coc(-c3cccc(C#N)c3)c2)n1 [Compound B-2, 5-(3-Cyanophenyl)-N-(3-(2-oxopropyl)-1,2,4-thiadiazol-5-yl)furan-3-carboxamide] | 4.26
